PubChem BioAssay AID1963869 (Molecular Pharmacology Branch, DTP, NCI, 2024)

Test system: KRAS patient-derived spheroids with HUVEC/MSC, viability
Assay: Anticancer human tumor 323965-272-R-J2-PDC patient-derived pancreatic carcinoma cell line growth inhibition [KRAS2]
Details: for IC50: curve of first compound; for viability, T/C: stronger effect = lower value
Summary of the method: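 Combination screen of spheroid viability in tumor-cell co-cultures with endothelial (HUVEC) and mesenchymal stem cell stroma. Each agent was tested in half-log dilutions, topping at clinical Cmax or at 10 microM without a known Cmax.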

[1] = second compound 0.1 µM, first compound 0.0316 µM
[2] = second compound 0.316 µM, first compound 0.0316 µM
[3] = second compound 1 µM, first compound 0.0316 µM
[4] = second compound 3.16 µM, first compound 0.0316 µM
[5] = second compound 10 µM, first compound 0.0316 µM
[6] = second compound 0.1 µM, first compound 0.1 µM
[7] = second compound 0.1 µM, first compound 0.316 µM
[8] = second compound 0.1 µM, first compound 1 µM
[9] = second compound 0.1 µM, first compound 3.16 µM
[10] = second compound 0.1 µM, first compound 10 µM
[11] = second compound 0.316 µM, first compound 0.1 µM
[12] = second compound 0.316 µM, first compound 0.316 µM
[13] = second compound 0.316 µM, first compound 1 µM
[14] = second compound 0.316 µM, first compound 3.16 µM
[15] = second compound 0.316 µM, first compound 10 µM
[16] = second compound 1 µM, first compound 0.1 µM
[17] = second compound 1 µM, first compound 0.316 µM
[18] = second compound 1 µM, first compound 1 µM
[19] = second compound 1 µM, first compound 3.16 µM
[20] = second compound 1 µM, first compound 10 µM
[21] = second compound 3.16 µM, first compound 0.1 µM
[22] = second compound 3.16 µM, first compound 0.316 µM
[23] = second compound 3.16 µM, first compound 1 µM
[24] = second compound 3.16 µM, first compound 3.16 µM
[25] = second compound 3.16 µM, first compound 10 µM
[26] = second compound 10 µM, first compound 0.1 µM
[27] = second compound 10 µM, first compound 0.316 µM
[28] = second compound 10 µM, first compound 1 µM
[29] = second compound 10 µM, first compound 3.16 µM
[30] = second compound 10 µM, first compound 10 µM
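Further: spheroids exposed to agents for 7 days.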
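Wherever viability, T/C is given: 100% = DMSO vehicle control viability.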

SMILES: CC(=O)Nc1cccc(-n2c(=O)n(C3CC3)c(=O)c3c(Nc4ccc(I)cc4F)n(C)c(=O)c(C)c32)c1 + CC1OCC2(CCN(c3cnc(Sc4ccnc(N)c4Cl)c(N)n3)CC2)C1N
- IC50 (second compound 0.1 µM): 1.78 nM
- IC50 (second compound 0.316 µM): 0.438 nM
- IC50 (second compound 1 µM): < 0.1 nM
- IC50 (second compound 3.16 µM): < 0.1 nM
- IC50 (second compound 10 µM): < 0.1 nM
- viability, T/C (second compound 0.1 µM, first compound 0.0001 µM): 80.7%
- viability, T/C (second compound 0.1 µM, first compound 0.000316 µM): 72.3%
- viability, T/C (second compound 0.1 µM, first compound 0.001 µM): 56.4%
- viability, T/C (second compound 0.1 µM, first compound 0.00316 µM): 41.8%
- viability, T/C (second compound 0.1 µM, first compound 0.01 µM): 35%
- viability, T/C [1]: 25.8%
- viability, T/C (second compound 0.316 µM, first compound 0.0001 µM): 63.1%
- viability, T/C (second compound 0.316 µM, first compound 0.000316 µM): 53.3%
- viability, T/C (second compound 0.316 µM, first compound 0.001 µM): 41.7%
- viability, T/C (second compound 0.316 µM, first compound 0.00316 µM): 34.9%
- viability, T/C (second compound 0.316 µM, first compound 0.01 µM): 27.1%
- viability, T/C [2]: 20.4%
- viability, T/C (second compound 1 µM, first compound 0.0001 µM): 47.3%
- viability, T/C (second compound 1 µM, first compound 0.000316 µM): 40%
- viability, T/C (second compound 1 µM, first compound 0.001 µM): 33.6%
- viability, T/C (second compound 1 µM, first compound 0.00316 µM): 25.6%
- viability, T/C (second compound 1 µM, first compound 0.01 µM): 20.4%
- viability, T/C [3]: 17.1%
- viability, T/C (second compound 3.16 µM, first compound 0.0001 µM): 29%
- viability, T/C (second compound 3.16 µM, first compound 0.000316 µM): 27.8%
- viability, T/C (second compound 3.16 µM, first compound 0.001 µM): 21.7%
- viability, T/C (second compound 3.16 µM, first compound 0.00316 µM): 17.4%
- viability, T/C (second compound 3.16 µM, first compound 0.01 µM): 18.8%
- viability, T/C [4]: 17.8%
- viability, T/C (second compound 10 µM, first compound 0.0001 µM): 29%
- viability, T/C (second compound 10 µM, first compound 0.000316 µM): 26.3%
- viability, T/C (second compound 10 µM, first compound 0.001 µM): 19.7%
- viability, T/C (second compound 10 µM, first compound 0.00316 µM): 17.7%
- viability, T/C (second compound 10 µM, first compound 0.01 µM): 14.8%
- viability, T/C [5]: 15.9%

SMILES: COC(=O)c1ccc2c(C(=Nc3ccc(N(C)C(=O)CN4CCN(C)CC4)cc3)c3ccccc3)c(O)[nH]c2c1 + CC1OCC2(CCN(c3cnc(Sc4ccnc(N)c4Cl)c(N)n3)CC2)C1N
- IC50 (second compound 0.1 µM): > 10000 nM
- IC50 (second compound 0.316 µM): 5080 nM
- IC50 (second compound 1 µM): < 31.6 nM
- IC50 (second compound 3.16 µM): < 31.6 nM
- IC50 (second compound 10 µM): < 31.6 nM
- viability, T/C [1]: 78.8%
- viability, T/C [6]: 85.7%
- viability, T/C [7]: 81.8%
- viability, T/C [8]: 76.3%
- viability, T/C [9]: 79.1%
- viability, T/C [10]: 73.4%
- viability, T/C [2]: 74.8%
- viability, T/C [11]: 59.2%
- viability, T/C [12]: 61.1%
- viability, T/C [13]: 65.2%
- viability, T/C [14]: 50%
- viability, T/C [15]: 45.8%
- viability, T/C [3]: 45.3%
- viability, T/C [16]: 47.9%
- viability, T/C [17]: 53.2%
- viability, T/C [18]: 41.6%
- viability, T/C [19]: 43.9%
- viability, T/C [20]: 41.6%
- viability, T/C [4]: 34.6%
- viability, T/C [21]: 38.7%
- viability, T/C [22]: 35.2%
- viability, T/C [23]: 36%
- viability, T/C [24]: 31.9%
- viability, T/C [25]: 33.3%
- viability, T/C [5]: 31.8%
- viability, T/C [26]: 30.3%
- viability, T/C [27]: 29.7%
- viability, T/C [28]: 27.5%
- viability, T/C [29]: 23.4%
- viability, T/C [30]: 23.2%

SMILES: COc1cc(Nc2ncc3c(n2)-c2ccc(Cl)cc2C(c2c(F)cccc2OC)=NC3)ccc1C(=O)O + CC1OCC2(CCN(c3cnc(Sc4ccnc(N)c4Cl)c(N)n3)CC2)C1N
- IC50 (second compound 0.1 µM): 89.9 nM
- IC50 (second compound 0.316 µM): < 31.6 nM
- IC50 (second compound 1 µM): < 31.6 nM
- IC50 (second compound 3.16 µM): < 31.6 nM
- IC50 (second compound 10 µM): < 31.6 nM
- viability, T/C [1]: 79.5%
- viability, T/C [6]: 47.3%
- viability, T/C [7]: 33.8%
- viability, T/C [8]: 44.3%
- viability, T/C [9]: 50.6%
- viability, T/C [10]: 56.2%
- viability, T/C [2]: 57.2%
- viability, T/C [11]: 39.9%
- viability, T/C [12]: 30.8%
- viability, T/C [13]: 32.6%
- viability, T/C [14]: 39.1%
- viability, T/C [15]: 43.8%
- viability, T/C [3]: 44.9%
- viability, T/C [16]: 26.6%
- viability, T/C [17]: 23.4%
- viability, T/C [18]: 26.6%
- viability, T/C [19]: 30.4%
- viability, T/C [20]: 33.7%
- viability, T/C [4]: 37.2%
- viability, T/C [21]: 22.2%
- viability, T/C [22]: 17.7%
- viability, T/C [23]: 23%
- viability, T/C [24]: 24.1%
- viability, T/C [25]: 28.3%
- viability, T/C [5]: 29.9%
- viability, T/C [26]: 19.3%
- viability, T/C [27]: 17.4%
- viability, T/C [28]: 20.3%
- viability, T/C [29]: 20.9%
- viability, T/C [30]: 23.3%

SMILES: COc1cc2nccc(Oc3ccc(NC(=O)C4(C(=O)Nc5ccc(F)cc5)CC4)cc3)c2cc1OC + CC1OCC2(CCN(c3cnc(Sc4ccnc(N)c4Cl)c(N)n3)CC2)C1N
- IC50 (second compound 0.1 µM): > 10000 nM
- IC50 (second compound 0.316 µM): > 10000 nM
- IC50 (second compound 1 µM): < 31.6 nM
- IC50 (second compound 3.16 µM): < 31.6 nM
- IC50 (second compound 10 µM): < 31.6 nM
- viability, T/C [1]: 80.4%
- viability, T/C [6]: 80.5%
- viability, T/C [7]: 74.9%
- viability, T/C [8]: 87.4%
- viability, T/C [9]: 79.8%
- viability, T/C [10]: 73.5%
- viability, T/C [2]: 58.7%
- viability, T/C [11]: 65.4%
- viability, T/C [12]: 65.5%
- viability, T/C [13]: 64.6%
- viability, T/C [14]: 71.9%
- viability, T/C [15]: 63%
- viability, T/C [3]: 46.9%
- viability, T/C [16]: 42.4%
- viability, T/C [17]: 46.9%
- viability, T/C [18]: 58.4%
- viability, T/C [19]: 52.8%
- viability, T/C [20]: 45.4%
- viability, T/C [4]: 35.1%
- viability, T/C [21]: 36.1%
- viability, T/C [22]: 36.3%
- viability, T/C [23]: 35.5%
- viability, T/C [24]: 35.2%
- viability, T/C [25]: 29.8%
- viability, T/C [5]: 27.4%
- viability, T/C [26]: 28.8%
- viability, T/C [27]: 26.8%
- viability, T/C [28]: 30.3%
- viability, T/C [29]: 33.5%
- viability, T/C [30]: 27.3%
